Assay results taken from patent publication US6492124B1, “Trance activated signal transduction pathways in osteoclasts” (The Rockefeller University, priority 1999, dated 2002).

How the values were obtained:
Format in all cases: cell-based, mouse
[1] = system: osteoclasts; test: Osteoclast differentiation with TRANCE plus CSF-1 (TRAP solution assay); settings: TRANCE 100 ng/ml plus CSF-1 50 ng/ml; LY294002 200 nM and 800 nM
Procedure: FIG. 3. c-Src is required for TRANCE-induced PKB activation and osteoclast survival. (A) c-Src was immunoprecipitated from osteoclasts, dendritic cells and macrophages stimulated with TRANCE (1 μg/ml) for the indicated times using an anti-c-Src-specific monoclonal antibody (327). PTK activity of the c-Src immunprecipitates were measured in vitro using SAM68, a PTK specific substrate. The degree of SAM68 phosphorylation was determined by Western blot analysis using an anti-phospho-tyrosine antibody (4G10) and densitometry. Note that c-Src kinase activity was not detectable in TRANCE-treated macrophages most likely due to low levels of c-Src in these cells (Lacey, et al., supra, 1998). (B) Osteoclasts derived from wild type and c-Src deficient mice were stimulated with TRANCE (5 μg/ml) for 10 min and the levels of phosphorylated PKB (PKB^P), total PKB, and total IκBα were determined as in FIG. 1. (C) Osteoclasts from wild-type (open bars) and c-Src deficient (solid bars) mice were washed and then cultured for an additional 24 hours in media alone (Medium) or in media with TRANCE (5 μg/ml) or CSF-1 (10 ng/ml). TRAP solution assays were performed and percent survival calculated. The experiment was performed in triplicate and the mean values with positive standard deviations are shown. […] Osteoclasts were detected by TRAP solution assays. […]

[2] = system: PKB; test: PKB activation in osteoclasts (phospho-PKB Western blot); settings: for TRANCE-induced PKB activation (phosphorylated form of PKB): osteoclasts pretreated 90 min with inhibitor 10 μM, then TRANCE 1 μg/ml
Procedure: (§1) FIG. 1. […] (A) Mature bone marrow-derived osteoclasts were stimulated for the indicated times with recombinant hCD8-TRANCE (TRANCE; 1 μg/ml). Levels of phosphorylated forms of p44/p42 ERK (p44 ERK^P and p42 ERK^P), IκBα (IκB-α^P) and PKB (PKB^P) in whole cell extracts were determined using phospho-peptide-specific antibodies as indicated in the figure. […] (B) as in (A) except the use of mature bone marrow-derived dendritic cells instead of osteoclasts.
(§2) FIG. 2. […] (A) Osteoclasts were serum starved and then pretreated for 90 min with LY294002 (10 μM), Herbimycin A (Herb. A; 10 μM), and PP1 (10 μM) inhibitors which are specific for PI3-kinase, PTKs, and Src-family kinases, respectively, were stimulated for indicated times with TRANCE (1 μg/ml). Levels of phosphorylated p44/p42 ERK, PKB, and IκB-α were determined as described in FIG. 1. Cells pretreated with vehicle (DMSO) were used as a negative control. (B) as in (A) except the use of mature bone marrow-derived dendritic cells.
(§3) Primary cells and cell lines. […] In brief, bone marrow cells from tibiae and femur of 4-6 week old mice (C57BL/6, Jackson Laboratories) were cultured overnight in media (α-MEM, 10% FCS) in the presence of CSF-1 (5 ng/ml). […] For experiments described in this study, only adherent cells were used after extensive washing. […] After allowing them adhere for 2 hours to a tissue culture dish, contaminating floater cells were washed away and mature dendritic cells were obtained by overnight culture.
(§4) Cell stimulation, cell transfection and in vitro assays. In vitro differentiated mature dendritic cells, macrophages and osteoclasts were washed to remove exogenous growth factors, cultured in media with low serum (0.5% FCS, 6 hours), then stimulated by adding various cytokines in the presence or absence of inhibitors for various times as indicated. After stimulation, the cells were washed in ice-cold PBS, and subjected to Western blot analysis or immunoprecipitation as described below.
All cells were harvested and lysed in extraction buffer (20 mM HEPES NaOH (pH 7.4), 150 mM NaCl, 1% Triton X-100, 10% glycerol, 10 mM EDTA, 1 mM Na3VO4, 1 mM phenylmethylsulfonylfluoride, 1 μg/ml leupeptin, and 0.1 U of aprotinin per ml) and cleared by centrifugation to obtain whole cell extracts. Protein assays were performed to ensure equal amounts of lysates were used in each sample.

[3] = system: NF-κB; test: NF-κB activation measured by IκB-α phosphorylation/degradation in osteoclasts and dendritic cells (Western blot); settings: osteoclasts and dendritic cells (FIGS. 2A and 2B), inhibitor 10 μM, TRANCE 1 μg/ml
Procedure: as §1, §2, §3
as §4, with “below. […]” for “below.”

[4] = system: PKB; test: PKB activation in dendritic cells (phospho-PKB Western blot)
Procedure: FIG. 1. TRANCE activates p44/42 ERK, NF-κB and PKB in osteoclasts and dendritic cells. (A) Mature bone marrow-derived osteoclasts were stimulated for the indicated times with recombinant hCD8-TRANCE (TRANCE; 1 μg/ml). Levels of phosphorylated forms of p44/p42 ERK (p44 ERK^P and p42 ERK^P), IκBα (IκB-α^P) and PKB (PKB^P) in whole cell extracts were determined using phospho-peptide-specific antibodies as indicated in the figure. The membranes were stripped and incubated with antibodies against the p44/p42 ERK, IκB-α, and PKB as indicated to confirm that similar amounts of whole cell extracts were analyzed. Note the decrease of IκB-α after 10 min of treatment due to its degradation. (B) as in (A) except the use of mature bone marrow-derived dendritic cells instead of osteoclasts.
FIG. 2. TRANCE-induced PKB activation in osteoclasts and dendritic cells is blocked by inhibitors of PI3-kinase, tyrosine kinases and Src family kinases. (A) Osteoclasts were serum starved and then pretreated for 90 min with LY294002 (10 μM), Herbimycin A (Herb. A; 10 μM), and PP1 (10 μM) inhibitors which are specific for PI3-kinase, PTKs, and Src-family kinases, respectively, were stimulated for indicated times with TRANCE (1 μg/ml). Levels of phosphorylated p44/p42 ERK, PKB, and IκB-α were determined as described in FIG. 1. Cells pretreated with vehicle (DMSO) were used as a negative control. (B) as in (A) except the use of mature bone marrow-derived dendritic cells.
FIG. 6. Cytokine receptors that engage TRAF6 activate PKB through Src-family kinases. (A) Dendritic cells were treated with TNF (10 ng/ml), TRANCE (5 μg/ml), LPS (50 μg/ml), or IL-1α (20 ng/ml) for the indicated times (min). The activation of PKB was determined in whole cell extracts using a phospho-PKB-specific antibody as described in FIG. 1. (B) Dendritic cells were pretreated with vehicle (DMSO) or the Src-family kinase inhibitor, PP1 (10 μM) for 90 minutes followed by a 15 minute treatment with TRANCE (5 μg/ml), LPS (50 μg/ml), or IL-1α (20 ng/ml) or no treatment at all (−). The activation of PKB was determined as described in FIG. 1.
Primary cells and cell lines. Osteoclasts and macrophages were generated from bone marrow precursors as described (Wani, et al., Endocrinology, 140:[…], 1999). In brief, bone marrow cells from tibiae and femur of 4-6 week old mice (C57BL/6, Jackson Laboratories) were cultured overnight in media (α-MEM, 10% FCS) in the presence of CSF-1 (5 ng/ml). After 24 hours, non-adherent cells were harvested, washed, and further cultured in media with CSF-1 (50 ng/ml) plus TRANCE (10 ng/ml) to develop osteoclasts, or with CSF-1 alone to develop macrophages. Using these conditions, after 4 days of culture, greater than 95 percent of the adherent cells were osteoclasts or macrophages. For experiments described in this study, only adherent cells were used after extensive washing. Mature dendritic cells were generated from bone marrow precursors of 4-6 week old female C57BL/6 mice (C57BL/6, Jackson Laboratories) cultured in media (RPMI1640, 5% FBS) and GM-CSF (1:30 cultured supernatant from the J558 cell line, a gift from Dr. R. M. Steinman, The Rockefeller University) for 8 days as previously described (Inaba, et al., J. Exp. Med., 176:1693-1702, 1992). To generate osteoclasts and dendritic cells from c-Src deficient mice, spleen cells, which contain hematopoietic precursors due to extramedullary hematopoeisis, were substituted for bone marrow cells as previously described (Schwartzberg, et al., Genes Dev., 11:2835-2844, 1997). Mature spleen-derived dendritic cells were isolated from spleens treated with collagenase (40 U/ml; Boehinger Mannheim) and subjected to a Nycodenz centrifugation gradient (14.5%; Nycomed) to obtain low density cells. After allowing them adhere for 2 hours to a tissue culture dish, contaminating floater cells were washed away and mature dendritic cells were obtained by overnight culture.
Cell stimulation, cell transfection and in vitro assays. […]

[5] = system: mature osteoclasts; test: Osteoclast survival assay (TRAP solution assay); settings: 24 hours; TRANCE 5 μg/ml or CSF-1 10 ng/ml
Procedure: TRAP solution assays were performed and percent survival calculated. The experiment was performed in triplicate and the mean values with positive standard deviations are shown. […] (E) Mature osteoclasts were washed extensively and then cultured for an additional 24 hr in media without (−) or with TRANCE (5 μg/ml; +) in the absence or presence of increasing doses (200 nM and 800 nM) of LY294002. TRAP solution assays were performed and percent survival was as described in Experimental Procedures. The experiment was performed in triplicate and the mean values with positive standard deviations are shown.
Osteoclast survival assays. In vitro differentiated mature osteoclasts were washed 3 times in media then further cultured for 24 hr in media alone (control) or in media with TRANCE (5 μg/ml) or CSF-1 (10 ng/ml) in the presence or absence of LY294002 as indicated.
Specific cell survival (%)=(A405, 24 hr−A405. background)*100/(A405, 0 hr−A405, background)

With O=c1cc(N2CCOCC2)oc2c(-c3ccccc3)cccc12 [LY294002] the osteoclast differentiation [1] was “did not inhibit”.

With COc1cccc(-c2cc(=O)c3ccccc3o2)c1N [PD98059, reference compound] the “TRANCE-induced PKB activation” value ([2]; MEK inhibitor, cell type not stated (osteoclasts and dendritic cells studied), data not shown) was “failed to inhibit”.

Cc1ccc(-c2nn(C(C)(C)C)c3ncnc(N)c23)cc1 [PP1, reference compound] was tested, and the “TRANCE-induced PKB activation (phosphorylated form of PKB)” value [2] was “blocked”, the “NF-κB activation as measured by IκB-α degradation” value [3] was “neither LY294002, herbimycin A, nor PP1 significantly affected” and the “TRANCE-induced PKB activation (phosphorylated form of PKB)” value ([4]; dendritic cells pretreated 90 min with inhibitor 10 μM, then TRANCE 1 μg/ml) was “inhibited”. The “activation of PKB by IL-1α” value ([4]; dendritic cells pretreated with PP1 10 μM 90 minutes, then IL-1α 20 ng/ml 15 minutes) was “inhibited” and the “activation of PKB by LPS” value ([4]; dendritic cells pretreated with PP1 10 μM 90 minutes, then LPS 50 μg/ml 15 minutes) was “inhibited”.

For CO[C@H]1[C@@H](OC)C[C@H](C)[C@@H](OC)C2=CC(=O)C=C(NC(=O)/C(C)=C/C=C\[C@H](OC)[C@@H](OC(N)=O)/C(C)=C/[C@@H]1C)C2=O [herbimycin A, reference compound], the “TRANCE-induced PKB activation (phosphorylated form of PKB)” value [2] was “blocked” and the “NF-κB activation as measured by IκB-α degradation” value [3] was “neither LY294002, herbimycin A, nor PP1 significantly affected”.

B1: IL-1α: recombinant IL-1 purchased from R&D Systems (protein, UniProt P01583 113-271, looked up)
Interleukin-1 alpha: SAPFSFLSNVKYNFMRIIKYEFILNDALNQSIIRANDQYLTAAALHNLDEAVKFDMGAYKSSKDDAKITVILRISKTQLYVTAQDEDQPVLLKEMPEIPKTITGSETNLLFFWETHGTKNYFTSVAHPNLFIATKQDYWVCLAGGPPSITDFQILENQA
B1 was tested, and the “PKB activation in dendritic cells stimulated with cytokine” value ([4]; TNF 10 ng/ml, TRANCE 5 μg/ml, LPS 50 μg/ml, IL-1α 20 ng/ml, CD40L data not shown) was “activated”.

B2: CSF-1: recombinant CSF-1 purchased from R&D Systems (protein, UniProt P09603 33-554, looked up)
Macrophage colony-stimulating …: EEVSEYCSHMIGSGHLQSLQRLIDSQMETSCQITFEFVDQEQLKDPVCYLKKAFLLVQDIMEDTMRFRDNTPNAIAIVQLQELSLRLKSCFTKDYEEHDKACVRTFYETPLQLLEKVKNVFNETKNLLDKDWNIFSKNCNNSFAECSSQDVVTKPDCNCLYPKAIPSSDPASVSPHQPLAPSMAPVAGLTWEDSEGTEGSSLLPGEQPLHTVDPGSAKQRPPRSTCQSFEPPETPVVKDSTIGGSPQPRPSVGAFNPGMEDILDSAMGTNWVPEEASGEASEIPVPQGTELSPSRPGGGSMQTEPARPSNFLSASSPLPASAKGQQPADVTGTALPRVGPVRPTGQDWNHTPQKTDHPSALLRDPPEPGSPRISSLRPQGLSNPSTLSAQPQLSRSHSSGSVLPLGELEGRRSTRDRRSPAEPEGGPASEGAARPLPRFNSVPLTDTGHERQSEGSFSPQLQESVFHLLVPSVILVLLAVGGLLFYRWRRRSHQEPQRADSPLEQPEGSPLTQDDRQVELPV
For B2, the “cytokine-promoted survival in c-Src−/− osteoclasts compared to wild-type” value [5] was “not reduced”.
